Assays:
Type in all cases: in vivo
[1] = test system: wheat (Triticum aestivum); experiment: Test B pre-/postemergence plant response
In short: (§1)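 Visual injury scores on a 0–100 scale (100 = complete control) relative to untreated plants, taken about 10 days post-treatment in greenhouse. Treatments were a directed preemergence soil spray and a postemergence spray at one- to two-leaf stage, using surfactant-containing solvent formulation.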

[2] = test system: giant foxtail (Setaria faberii); experiment: Test B pre-/postemergence plant response
In short: as §1

corn (Zea mays) = experiment: Test B pre-/postemergence plant response
In short: as §1

[3] = test system: pigweed (Amaranthus retroflexus); experiment: Test B pre-/postemergence plant response
In short: as §1

kochia (Kochia scoparia) = experiment: Test B pre-/postemergence plant response
In short: as §1

[4] = test system: barnyardgrass (Echinochloa crus-galli); experiment: Test B pre-/postemergence plant response
In short: as §1

[5] = test system: ragweed (common ragweed, Ambrosia elatior); experiment: Test B pre-/postemergence plant response
In short: as §1

[6] = test system: Italian ryegrass (Lolium multiflorum); experiment: Test B pre-/postemergence plant response
In short: as §1

[7] = test system: blackgrass (Alopecurus myosuroides); experiment: Test B postemergence plant response
In short: (§2)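 Visual injury ratings, 0 = no effect to 100 = complete control, versus untreated controls approximately 10 days after postemergence spraying in greenhouse. Plants were at one- to two-leaf stage, 2 to 10 cm tall, in loam soil/sand blend; a dash denotes no result.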

[8] = test system: galium (catchweed bedstraw, Galium aparine); experiment: Test B postemergence plant response
In short: as §2

[9] = test system: small-flower umbrella sedge (Cyperus difformis); experiment: Test C flooded paddy test plant response; conditions: Flood, 250 g ai/ha; scale of 0 to 100 where 0 is no effect and 100 is complete control; 13 to 15 days
In short: (§3)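 Greenhouse paddy assay, 13–15 days. Treatment into 3 cm floodwater over 2-leaf plants; visual 0–100 rating against controls.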

rice (Oryza sativa) = experiment: Test C flooded paddy test plant response; conditions: Flood, 250 g ai/ha; scale of 0 to 100 where 0 is no effect and 100 is complete control; 13 to 15 days
In short: as §3

[10] = test system: barnyardgrass (Echinochloa crus-galli); experiment: Test C flooded paddy test plant response; conditions: Flood, 250 g ai/ha; scale of 0 to 100 where 0 is no effect and 100 is complete control; 13 to 15 days
In short: as §3

[11] = test system: ducksalad (Heteranthera limosa); experiment: Test C flooded paddy test plant response; conditions: Flood, 250 g ai/ha; scale of 0 to 100 where 0 is no effect and 100 is complete control; 13 to 15 days
In short: as §3

[12] = 125 g ai/ha, postemergence, 0 to 100 scale, 0 no effect, 100 complete control
[13] = Postemergence, 31 g ai/ha, 0 to 100 scale (0 no effect, 100 complete control)
[14] = 31 g ai/ha, Preemergence, 0 to 100 scale where 0 is no effect and 100 is complete control
[15] = Preemergence, 125 g ai/ha, 0 to 100 scale (0 no effect, 100 complete control)
[16] = Postemergence, 500 g ai/ha, 0 to 100 scale (0 no effect, 100 complete control)
[17] = Preemergence, 500 g ai/ha, 0 to 100 scale where 0 is no effect and 100 is complete control

| SMILES | Plant response rating, Wheat [1, 12] | Plant response rating, Foxtail, Giant [2, 12] | Foxtail, Giant plant response rating [2, 15] | Plant response rating, Corn (corn (Zea mays); [12]) | Plant response rating, Pigweed [3, 12] | Pigweed plant response rating [3, 15] | Plant response rating, Kochia (kochia (Kochia scoparia); [12]) | Kochia plant response rating (kochia (Kochia scoparia); [15]) | Plant response rating, Barnyardgrass [4, 12] | Barnyardgrass plant response rating [4, 15] | Plant response rating, Ragweed [5, 12] | Ragweed plant response rating [5, 15] | Plant response rating, Ryegrass, Italian [6, 12] | Ryegrass, Italian plant response rating [6, 15] | Plant response rating, Blackgrass [7, 12] | Plant response rating, Galium [8, 12] | Sedge, Umbrella plant response rating [9] | Rice plant response rating (rice (Oryza sativa)) | Barnyardgrass plant response rating [10] | Ducksalad plant response rating [11] | other results |
| --- | --- | --- | --- | --- | --- | --- | --- | --- | --- | --- | --- | --- | --- | --- | --- | --- | --- | --- | --- | --- | --- |
| Fc1ccnc(-c2ccccc2Oc2ncc(Cl)cn2)c1 [Compound 175] | 0 | 0 | 0 | 0 | 60 | 70 | 30 | 0 | 10 | 0 | 30 | 0 | 0 | 0 | 0 | 40 | 0 | 0 | 0 | 0 | Plant response rating, Wheat [1, 13]: 0; Plant response rating, Foxtail, Giant [2, 14]: 0; Plant response rating, Foxtail, Giant [2, 13]: 0; Plant response rating, Corn (corn (Zea mays); [13]): 0; Plant response rating, Pigweed [3, 14]: 0; Plant response rating, Pigweed [3, 13]: 50; Plant response rating, Kochia (kochia (Kochia scoparia); [14]): 0; Plant response rating, Kochia (kochia (Kochia scoparia); [13]): 0; Plant response rating, Barnyardgrass [4, 14]: 0; Plant response rating, Barnyardgrass [4, 13]: 0; Plant response rating, Ragweed [5, 14]: 0; Plant response rating, Ragweed [5, 13]: 20; Plant response rating, Ryegrass, Italian [6, 14]: 0; Plant response rating, Ryegrass, Italian [6, 13]: 0; Plant response rating, Blackgrass [7, 13]: 0; Plant response rating, Galium [8, 13]: 20 |
| Cn1ccnc1-c1ccccc1Oc1ncc(Br)cn1 [Compound 152] | 0 | 0 | 0 | 0 | 0 | 0 | 0 | 0 | 0 | 0 | 0 | 0 | 0 | 0 | 0 | 0 | 0 | 0 | 0 | 0 | Plant response rating, Wheat [1, 16]: 0; Plant response rating, Foxtail, Giant [2, 16]: 0; Plant response rating, Foxtail, Giant [2, 17]: 0; Plant response rating, Corn (corn (Zea mays); [16]): 0; Plant response rating, Pigweed [3, 16]: 0; Plant response rating, Pigweed [3, 17]: 0; Plant response rating, Kochia (kochia (Kochia scoparia); [16]): 0; Plant response rating, Kochia (kochia (Kochia scoparia); [17]): 0; Plant response rating, Barnyardgrass [4, 16]: 0; Plant response rating, Barnyardgrass [4, 17]: 0; Plant response rating, Ragweed [5, 16]: 0; Plant response rating, Ragweed [5, 17]: 0; Plant response rating, Ryegrass, Italian [6, 16]: 0; Plant response rating, Ryegrass, Italian [6, 17]: 0; Plant response rating, Blackgrass [7, 16]: 0; Plant response rating, Galium [8, 16]: 0 |
| Cn1nc(-c2c(Br)cccc2Oc2ncc(Cl)cn2)cc1C(F)(F)F [Compound 147] | 0 | 0 | 0 | 0 | 0 | 0 | 0 | 0 | 0 | 0 | 0 | 0 | 0 | 0 | 0 | 0 | 0 | 0 | 0 | 0 | Plant response rating, Wheat [1, 13]: 0; Plant response rating, Foxtail, Giant [2, 14]: 0; Plant response rating, Foxtail, Giant [2, 13]: 0; Plant response rating, Corn (corn (Zea mays); [13]): 0; Plant response rating, Pigweed [3, 14]: 0; Plant response rating, Pigweed [3, 13]: 0; Plant response rating, Kochia (kochia (Kochia scoparia); [14]): 0; Plant response rating, Kochia (kochia (Kochia scoparia); [13]): 0; Plant response rating, Barnyardgrass [4, 14]: 0; Plant response rating, Barnyardgrass [4, 13]: 0; Plant response rating, Ragweed [5, 14]: 0; Plant response rating, Ragweed [5, 13]: 0; Plant response rating, Ryegrass, Italian [6, 14]: 0; Plant response rating, Ryegrass, Italian [6, 13]: 0; Plant response rating, Blackgrass [7, 13]: 0; Plant response rating, Galium [8, 13]: 0 |
| C=C(C)c1cc(-c2ccccc2Oc2ncc(Cl)cn2)on1 [Compound 196] | 0 | 10 | 20 | 0 | 60 | 10 | 40 | 0 | 10 | 10 | 20 | 0 | 0 | 0 | 0 | 100 | 70 | 0 | 30 | 55 | Plant response rating, Wheat [1, 13]: 0; Plant response rating, Foxtail, Giant [2, 14]: 0; Plant response rating, Foxtail, Giant [2, 13]: 0; Plant response rating, Corn (corn (Zea mays); [13]): 0; Plant response rating, Pigweed [3, 14]: 0; Plant response rating, Pigweed [3, 13]: 20; Plant response rating, Kochia (kochia (Kochia scoparia); [14]): 0; Plant response rating, Kochia (kochia (Kochia scoparia); [13]): 0; Plant response rating, Barnyardgrass [4, 14]: 0; Plant response rating, Barnyardgrass [4, 13]: 0; Plant response rating, Ragweed [5, 14]: 0; Plant response rating, Ragweed [5, 13]: 10; Plant response rating, Ryegrass, Italian [6, 14]: 0; Plant response rating, Ryegrass, Italian [6, 13]: 0; Plant response rating, Blackgrass [7, 13]: 0; Plant response rating, Galium [8, 13]: 60 |
